Source: ChEMBL document CHEMBL1201862, “PubChem BioAssay data set” (2004)
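Assay format: 96-well plates, 48-hour exposure. At the GI50, growth is halved.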 Calls of active or inactive are those of the source. Cut-off read from the data, not from the text of the source: active = GI50 up to about 1.1 µM and inactive = higher.

Experiments:
Test in all cases: NCI-60 cell line screen, 48 h
NCI-H226 = tested on: NCI-H226
TK-10 = tested on: TK-10
SK-OV-3 = tested on: SK-OV-3
OVCAR-5 = tested on: OVCAR-5
SNB-75 = tested on: SNB-75
SK-MEL-2 = tested on: SK-MEL-2
CAKI-1 = tested on: CAKI-1
IGROV-1 = tested on: IGROV-1
PC-3 = tested on: PC-3
NCI-H522 = tested on: NCI-H522
SF-268 = tested on: SF-268
HCT-116 = tested on: HCT-116
SR = tested on: SR
UO-31 = tested on: UO-31
HL-60 = tested on: HL-60
Malme-3M = tested on: Malme-3M
SNB-19 = tested on: SNB-19
SK-MEL-5 = tested on: SK-MEL-5
RXF 393 = tested on: RXF 393
HCT-15 = tested on: HCT-15

| SMILES | GI50 (NCI-H226) | GI50 (TK-10) | GI50 (SK-OV-3) | GI50 (OVCAR-5) | GI50 (SNB-75) | GI50 (SK-MEL-2) | GI50 (CAKI-1) | GI50 (IGROV-1) | GI50 (PC-3) | GI50 (NCI-H522) | GI50 (SF-268) | GI50 (HCT-116) | GI50 (SR) | GI50 (UO-31) | GI50 (HL-60) | GI50 (Malme-3M) | GI50 (SNB-19) | GI50 (SK-MEL-5) | GI50 (RXF 393) | GI50 (HCT-15) |
| --- | --- | --- | --- | --- | --- | --- | --- | --- | --- | --- | --- | --- | --- | --- | --- | --- | --- | --- | --- | --- |
| CN(CCCNC(=O)c1nn(-c2ccccc2)c2c1ccc1ccccc12)CCCNC(=O)c1nn(-c2ccccc2)c2c1ccc1ccccc12 | 2.08 µM (inactive) | 1.78 µM (inactive) | 1.83 µM (inactive) | 2.3 µM (inactive) | 1.64 µM (inactive) | 1.69 µM (inactive) | 1.61 µM (inactive) | 1.65 µM (inactive) | 1.52 µM (inactive) | 1.79 µM (inactive) | 1.98 µM (inactive) | 1.82 µM (inactive) | 1.24 µM (inactive) | 1.52 µM (inactive) | 0.221 µM (active) | 1.77 µM (inactive) | 1.79 µM (inactive) | 1.77 µM (inactive) | 1.76 µM (inactive) | 1.84 µM |
| COc1nn(Cc2ccccn2)c2ccc([N+](=O)[O-])cc12 | 85.9 µM (inactive) | 53.1 µM (inactive) | > 100 µM (inactive) | > 100 µM (inactive) | 17.3 µM (inactive) | 51.1 µM (inactive) | 51.2 µM (inactive) | 35.1 µM (inactive) | > 100 µM (inactive) | 47.8 µM (inactive) | > 100 µM (inactive) | 62.4 µM (inactive) | 28.4 µM (inactive) | 32.4 µM (inactive) | 20.2 µM (inactive) | > 100 µM (inactive) | > 100 µM (inactive) | 30.5 µM (inactive) | 42.4 µM (inactive) | 62.7 µM |
| Cc1cc(Cc2c(C)c(C)c(Cc3cc(C)cc(C(C)(C)C)c3O)c(C)c2C)c(O)c(C(C)(C)C)c1 | > 100 µM (inactive) | > 100 µM (inactive) | > 100 µM (inactive) | > 100 µM (inactive) | > 100 µM (inactive) | > 100 µM (inactive) | > 100 µM (inactive) | > 100 µM (inactive) | > 100 µM (inactive) | > 100 µM (inactive) | > 100 µM (inactive) | > 100 µM (inactive) | 1.21 µM (inactive) | > 100 µM (inactive) | 14.4 µM (inactive) | > 100 µM (inactive) | > 100 µM (inactive) | > 100 µM (inactive) | > 100 µM (inactive) | > 100 µM |
| C[N+](C)(C)CC1CCc2ccccc2C1=O (configuration not stated) | 24.2 µM (inactive) | 16.1 µM (inactive) | 18.6 µM (inactive) | 16.1 µM (inactive) | 16.7 µM (inactive) | 16.7 µM (inactive) | 4.97 µM (inactive) | 11.6 µM (inactive) | 15.5 µM (inactive) | 0.0809 µM (active) | 17.3 µM (inactive) | 5.55 µM (inactive) | 1.79 µM (inactive) | 18.3 µM (inactive) | 2.52 µM (inactive) | 1.8 µM (inactive) | 15.1 µM (inactive) | 16.2 µM (inactive) | 14.2 µM (inactive) | 3.04 µM |
| ClC1=C(Cc2ccccc2)Cc2ccc3c(c21)CCC3 | 23 µM (inactive) | 72.3 µM (inactive) | 83.6 µM (inactive) | 61.2 µM (inactive) | > 10 µM (inactive) |  | 41.4 µM (inactive) | 41.9 µM (inactive) | 32.3 µM (inactive) | 17.7 µM (inactive) | 33.2 µM (inactive) | 28.3 µM (inactive) | 18.3 µM (inactive) | 21.8 µM (inactive) | 19.7 µM (inactive) | 24.2 µM (inactive) | 21.5 µM (inactive) | 20.8 µM (inactive) | 19.7 µM (inactive) | 31.3 µM |
| C=CCNC(=O)NNC(O)(C(=O)OCC)C(F)(F)F (configuration not stated) | > 100 µM (inactive) | > 100 µM (inactive) | > 100 µM (inactive) | > 100 µM (inactive) | > 100 µM (inactive) | > 100 µM (inactive) | > 100 µM (inactive) | > 100 µM (inactive) | > 100 µM (inactive) | > 100 µM (inactive) | > 100 µM (inactive) | > 100 µM (inactive) | > 100 µM (inactive) | > 100 µM (inactive) | > 100 µM (inactive) | > 100 µM (inactive) | > 100 µM (inactive) | > 100 µM (inactive) | > 100 µM (inactive) | > 100 µM |
| Clc1ccc(C2ON=C(c3ccccc3)N2C23CC4CC(CC(C4)C2)C3)cc1 (configuration not stated) | > 10 µM (inactive) | > 10 µM (inactive) | > 10 µM (inactive) | > 10 µM (inactive) | > 10 µM (inactive) | > 10 µM (inactive) | > 10 µM (inactive) | > 10 µM (inactive) | > 10 µM (inactive) | > 10 µM (inactive) | > 10 µM (inactive) | > 10 µM (inactive) | > 10 µM (inactive) |  | > 10 µM (inactive) | > 10 µM (inactive) | > 10 µM (inactive) | > 10 µM (inactive) | > 10 µM (inactive) | > 10 µM |
| COc1ccccc1N1CCN(CCCN2C(C(=O)c3ccccc3)=C(O)c3c(C)cc(C)nc3S2(=O)=O)CC1 | 0.867 µM (active) | > 100 µM (inactive) | 85.9 µM (inactive) | 92.7 µM (inactive) | 5.87 µM (inactive) | > 100 µM (inactive) | 79.6 µM (inactive) | 72.1 µM (inactive) | > 100 µM (inactive) | 32.2 µM (inactive) | 42.5 µM (inactive) | 61.2 µM (inactive) | 46.2 µM (inactive) | 27.8 µM (inactive) | 79.4 µM (inactive) | > 100 µM (inactive) | 48.8 µM (inactive) | 51.9 µM (inactive) | 5.28 µM (inactive) | 56.6 µM |
| CC1=NC(C)(C)[N+]([O-])=C1 | > 10 µM (inactive) | > 10 µM (inactive) | > 10 µM (inactive) | > 10 µM (inactive) | 0.0718 µM (active) | > 10 µM (inactive) | > 10 µM (inactive) | > 10 µM (inactive) | > 10 µM (inactive) | > 10 µM (inactive) | > 10 µM (inactive) | > 10 µM (inactive) | 0.001 µM (active) | > 10 µM (inactive) | > 10 µM (inactive) | 8.73 µM (inactive) | > 10 µM (inactive) | > 10 µM (inactive) | > 10 µM (inactive) | > 10 µM |
| OC1CN2CCS[C@H]2C(O)C1O (some centres not stated) | > 100 µM (inactive) | > 100 µM (inactive) | > 100 µM (inactive) | > 100 µM (inactive) | > 100 µM (inactive) | > 100 µM (inactive) | > 100 µM (inactive) | > 100 µM (inactive) | > 100 µM (inactive) | > 100 µM (inactive) | > 100 µM (inactive) | > 100 µM (inactive) | > 100 µM (inactive) | > 100 µM (inactive) | > 100 µM (inactive) | > 100 µM (inactive) | > 100 µM (inactive) | > 100 µM (inactive) | > 100 µM (inactive) | > 100 µM |
| CCC1CCN/C(=N/S(=O)(=O)c2cc(C)c(Cl)cc2S)N1 (configuration not stated) | 26.7 µM (inactive) | 37.7 µM (inactive) | 40.5 µM (inactive) | 22.3 µM (inactive) | 40 µM (inactive) | 26.4 µM (inactive) | 30 µM (inactive) | 24.2 µM (inactive) | 50.2 µM (inactive) | 27.7 µM (inactive) | 57 µM (inactive) | 24.7 µM (inactive) | 35.4 µM (inactive) | 36.3 µM (inactive) | 30.8 µM (inactive) | 37.2 µM (inactive) | 30.2 µM (inactive) | > 100 µM (inactive) | 76.2 µM (inactive) | 38.5 µM |
| C=C(C)C(=O)OC1C(C(C)CCCO)=C(CO)CC2OC(=O)C(=C)C21 (configuration not stated) | 37.9 µM (inactive) | 30.3 µM (inactive) | 29 µM (inactive) | 22.1 µM (inactive) | 10.4 µM (inactive) | 20.5 µM (inactive) | 17.1 µM (inactive) | 15.6 µM (inactive) | 24.4 µM (inactive) | 3.44 µM (inactive) | 17.1 µM (inactive) | 14.6 µM (inactive) | 14.5 µM (inactive) |  | 6.41 µM (inactive) | 0.509 µM (active) | 37.9 µM (inactive) | 14 µM (inactive) | 13.8 µM (inactive) | 13.3 µM |
| Cc1ccc2c(c1)Nc1ccccc1P2(=O)O | > 100 µM (inactive) | > 100 µM (inactive) | > 100 µM (inactive) | > 100 µM (inactive) | < 0.01 µM (active) | > 100 µM (inactive) | > 100 µM (inactive) | > 100 µM (inactive) | > 100 µM (inactive) | > 100 µM (inactive) | > 100 µM (inactive) | > 100 µM (inactive) | > 100 µM (inactive) | > 100 µM (inactive) | > 100 µM (inactive) | > 100 µM (inactive) | > 100 µM (inactive) | > 100 µM (inactive) | > 100 µM (inactive) | > 100 µM |
| N=C1N(c2ccccc2)C(=S)/C(=N/c2ccccc2)N1c1ccccc1 | 20.2 µM (inactive) | 15 µM (inactive) | 18.9 µM (inactive) | 15.6 µM (inactive) | 15.9 µM (inactive) | 5.89 µM (inactive) | 14.4 µM (inactive) | 12 µM (inactive) | 10.2 µM (inactive) | 2.81 µM (inactive) | 14.9 µM (inactive) | 2.53 µM (inactive) | 2.58 µM (inactive) | 6.28 µM (inactive) | 3.12 µM (inactive) | 13.4 µM (inactive) | 16.6 µM (inactive) | 2.38 µM (inactive) | 11.9 µM (inactive) | 7.19 µM |
